Reference: patent publication US10654818B2, “Furane derivatives as inhibitors of ATAD2” (BAYER PHARMA AKTIENGESELLSCHAFT, priority 2015, dated 2020)

Target: T1, recombinant, N-terminally GST-tagged ATAD2 bromodomain amino acids 981-1108 (Homo sapiens, UniProt Q6PL18)
T1 construct: ATAD2 bromodomain amino acids 981-1108; made in house; host or cells: E. coli
T1 sequence (Q6PL18 981-1108): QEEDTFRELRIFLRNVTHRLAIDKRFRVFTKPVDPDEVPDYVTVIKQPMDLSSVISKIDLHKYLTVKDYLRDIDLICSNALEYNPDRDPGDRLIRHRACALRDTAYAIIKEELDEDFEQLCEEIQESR
Assay: TR-FRET assay: disruption of the interaction between ATAD2 and acetylated Histone H4 (Ac-H4) peptide
Type: binding
Settings: inhibition of ATAD2/Ac-H4 complex formation; 10 nM ATAD2, 50 nM Ac-H4 peptide
Description: The ability of the compounds described in the present invention to disrupt the interaction between ATAD2 and acetylated Histone H4 (Ac-H4) was used as quantitative measure of their ATAD2-binding affinities.
To this end a TR-FRET assay which detects the binding of an Ac-H4-derived synthetic peptide (purchased from e.g. Biosyntan (Berlin, Germany)) of sequence HSGRGKGGGGKGLGK(Ac)GGAKRHRK-Biotin to recombinant, N-terminally GST-tagged ATAD2 bromodomain amino acids 981-1108. The protein was produced in-house via E. coli expression followed by GSH-Sepharose affinity- and Superdex S200-size exclusion chromatography purification.
Typically, 11 different concentrations of each compound (0.1 nM, 0.33 nM, 1.1 nM, 3.8 nM, 13 nM, 44 nM, 0.15 μM, 0.51 μM, 1.7 μM, 5.9 μM and 20 μM) were tested in duplicate within the same microtiter plate. To this end, 100-fold concentrated compound solutions (in DMSO) were previously prepared with a Precision Pippeting System (BioTek) by serial dilution (1:3.4) of 2 mM stocks in clear, low-volume 384-well microtiter source plates (Greiner Bio-One). Subsequently, 50 nl of compounds were transferred into black, low-volume test plates from the same supplier using a Hummingbird capillary based liquid handling instrument (Digilab). Tests were started by the addition of 2 μl of 2.5-fold concentrated ATAD2 solution (25 nM=10 nM final concentration in the 5 μl assay volume) in aqueous assay buffer [50 mM HEPES pH 7.5, 50 mM potassium fluoride (KF), 100 mM sodium chloride (NaCl), 0.25 mM CHAPS, 0.05% bovine serum albumine (BSA) and 1 mM dithiothreitol (DTT)] to the compounds in the test plate with a Multidrop dispenser (Thermo-Fisher). Test plates were then incubated 10′ at 22° C., in order to allow pre-equilibration of putative compound-ATAD2 complexes. Subsequently, 3 μl of a 1.67-fold concentrated solution containing Ac-H4 peptide (83.5 nM=50 nM final concentration) and TR-FRET detection reagents [16.7 nM Anti-GST-XL665 (Cisbio), =10 nM final concentration and 4.17 nM Lance EU W-1024 Streptavidin Europium Chelate (Perkin-Elmer)=2.5 nM final concentration were dispensed into the plates.
The mixture was further incubated in the dark for 1 hour at 22° C. Finally the inhibition of the formation of ATAD2/Ac-H4 complexes was assessed by measurement of the resonance energy transfer from the Streptavidin-Eu-Chelate to the anti-GST-XL665 antibody present in the reaction. To this end, the fluorescence emissions at 622 nm and 665 nm after excitation at 337 nm were measured in a TR-FRET reader, e.g. a Rubystar or Pherastar (both from BMG Lab Technologies) or a Viewlux (Perkin-Elmer) and the ratio of the emissions at 665 nm and at 622 nm was taken as indicator for the amount of ATAD2/Ac-H4 complexes in equilibrium.
The data were normalized using two sets of control wells (16 each). The first accounted for 100% ATAD2/Ac-H4 binding (0% inhibition), and contained all reaction components but DMSO instead of inhibitors. The second represented 0% ATAD2/Ac-H4 binding (100% inhibition), and included all assay components except ATAD2. IC50 values were calculated by fitting the normalized inhibition data to a 4-parameter logistic equation using either Screener software (Genedata) or a Bayer-proprietary analysis software.

SMILES | IC50 [nM]
Cc1ccc([C@@H](C)NCc2ccc(-c3ccc(Cl)c(C(=O)N[C@@H](CNC4CCNC(C)(C)C4)Cc4ccc(C#N)cc4)c3)o2)cc1 (mixture of isomers) [Example 68] | 109
Cc1ccc([C@@H](C)NCc2ccc(-c3ccc(Cl)c(C(=O)N[C@@H](CN[C@H]4CC[C@@H](N)CC4)Cc4ccc(C#N)cc4)c3)o2)cc1 (single isomer, unassigned) [Example 72] | 138
Cc1ccc(C(C)NCc2ccc(-c3ccc(Cl)c(C(=O)N[C@@H](Cc4ccc(C#N)cc4)c4ncc[nH]4)c3)o2)cc1 (stereo in doubt) [Example 19, 2-chloro-N-[2-(4-cyanophenyl)-1-(1H-imidazol-2-yl)ethyl]-5-[5-({[(1S)-1-(4-methylphenyl)ethyl]amino}methyl)-2-furyl]benzamide] | 640
Cc1ccc([C@@H](C)NCc2ccc(-c3ccc(Cl)c(C(=O)N[C@H]4CNCC[C@H]4c4ccc(C#N)cc4)c3)o2)cc1 (stereo in doubt) [Example 76, Cis-chloro-N-[4-(4-cyanophenyl)piperidin-3-yl]-5-[5-({[(1R)-1-(4-methylphenyl)-ethyl]amino}methyl)-2-furyl]benzamide] | 441
Cc1ccc([C@@H](C)NCc2ccc(-c3ccc(Cl)c(C(=O)N[C@@H](CC(=O)N(C)C)Cc4ccc(C#N)cc4)c3)o2)cc1 [Example 1, 2-Chloro-N-[(2R)-1-(4-cyanophenyl)-4-(dimethylamino)-4-oxobutan-2-yl]-5-[5-({[(1R)-1-(4-methylphenyl)ethyl]amino}methyl)furan-2-yl]benzamide] | 740
Cc1ccc([C@@H](C)NCc2ccc(-c3ccc(Cl)c(C(=O)N[C@H](Cc4ccc(C#N)cc4)C(N)=O)c3)o2)cc1 [Example 2, Nα-{2-chloro-5-[5-({[(1R)-1-(4-methylphenyl)ethyl]amino}methyl)-2-furyl]benzoyl}-4-cyano-D-phenylalaninamide] | 949
Cc1ccc([C@@H](C)NCc2ccc(-c3ccc(Cl)c(C(=O)N[C@@H](CC(N)=O)Cc4ccc(C#N)cc4)c3)o2)cc1 [Example 3, N-[(2R)-4-amino-1-(4-cyanophenyl)-4-oxobutan-2-yl]-2-chloro-5-[5-({[(1R)-1-(4-methylphenyl)ethyl]amino}methyl)furan-2-yl]benzamide] | 927
CNC(=O)[C@@H](Cc1ccc(C#N)cc1)NC(=O)c1cc(-c2ccc(CN[C@H](C)c3ccc(C)cc3)o2)ccc1Cl [Example 5, Nα-{2-chloro-5-[5-({[(1R)-1-(4-methylphenyl)ethyl]amino}methyl)furan-2-yl]benzoyl}-4-cyano-N-methyl-D-phenylalaninamide] | 1890
Cc1ccc([C@@H](C)NCc2ccc(-c3ccc(Cl)c(C(=O)N[C@@H](CC(=O)NC(C)C)Cc4ccc(C#N)cc4)c3)o2)cc1 [Example 6, 2-chloro-N-[(2R)-1-(4-cyanophenyl)-4-(isopropylamino)-4-oxobutan-2-yl]-5-[5-({[(1R)-1-(4-methylphenyl)ethyl]amino}methyl)-2-furyl]benzamide] | 656
Cc1ccc([C@@H](C)NCc2ccc(-c3ccc(Cl)c(C(=O)N[C@@H](CC(=O)NCCO)Cc4ccc(C#N)cc4)c3)o2)cc1 [Example 7, 2-chloro-N-{(2R)-1-(4-cyanophenyl)-4-[(2-hydroxyethyl)amino]-4-oxobutan-2-yl}-5-[5-({[(1R)-1-(4-methylphenyl)ethyl]amino}methyl)-2-furyl]benzamide] | 832
Cc1ccc([C@@H](C)NCc2ccc(-c3ccc(Cl)c(C(=O)N[C@@H](CC(=O)NCCCO)Cc4ccc(C#N)cc4)c3)o2)cc1 [Example 8, 2-chloro-N-{(2R)-1-(4-cyanophenyl)-4-[(3-hydroxypropyl)amino]-4-oxobutan-2-yl}-5-[5-({[(1R)-1-(4-methylphenyl)ethyl]amino}methyl)-2-furyl]benzamide] | 898
Cc1ccc([C@@H](C)NCc2ccc(-c3ccc(Cl)c(C(=O)N[C@@H](CC(=O)N4CCCC4)Cc4ccc(C#N)cc4)c3)o2)cc1 [Example 9, 2-chloro-N-[(2R)-1-(4-cyanophenyl)-4-oxo-4-(pyrrolidin-1-yl)butan-2-yl]-5-[5-({[(1R)-1-(4-methylphenyl)ethyl]amino}methyl)-2-furyl]benzamide] | 749
Cc1ccc([C@@H](C)NCc2ccc(-c3ccc(Cl)c(C(=O)N[C@@H](CC(=O)N4CCOCC4)Cc4ccc(C#N)cc4)c3)o2)cc1 [Example 10, 2-chloro-N-[(2R)-1-(4-cyanophenyl)-4-(morpholin-4-yl)-4-oxobutan-2-yl]-5-[5-({[(1R)-1-(4-methylphenyl)ethyl]amino}methyl)-2-furyl]benzamide] | 674
Cc1ccc([C@@H](C)NCc2ccc(-c3ccc(Cl)c(C(=O)N[C@@H](CC(=O)N4CCN(C)CC4)Cc4ccc(C#N)cc4)c3)o2)cc1 [Example 11, 2-chloro-N-[(2R)-1-(4-cyanophenyl)-4-(4-methylpiperazin-1-yl)-4-oxobutan-2-yl]-5-[5-({[(lR)-1-(4-methylphenyl)ethyl]amino}methyl)-2-furyl]benzamide] | 822
Cc1ccc([C@@H](C)NCc2ccc(-c3ccc(Cl)c(C(=O)N[C@H](Cc4ccc(C#N)cc4)C(C)(C)O)c3)o2)cc1 [Example 12, 2-chloro-N-[(2R)-1-(4-cyanophenyl)-3-hydroxy-3-methylbutan-2-yl]-5-[5-({[(1R)-1-(4-methylphenyl)ethyl]amino}methyl)-2-furyl]benzamide] | 668
Cc1ccc([C@@H](C)NCc2ccc(-c3ccc(Cl)c(C(=O)N[C@@H](CCO)Cc4ccc(C#N)cc4)c3)o2)cc1 [Example 13, 2-chloro-N-[(2R)-1-(4-cyanophenyl)-4-hydroxybutan-2-yl]-5-[5-({[(1R)-1-(4-methylphenyl)ethyl]amino}methyl)-2-furyl]benzamide] | 386
COC[C@@H](Cc1ccc(C#N)cc1)NC(=O)c1cc(-c2ccc(CN[C@H](C)c3ccc(C)cc3)o2)ccc1Cl [Example 14, 2-chloro-N-[(2R)-1-(4-cyanophenyl)-3-methoxypropan-2-yl]-5-[5-({[(1R)-1-(4-methylphenyl)ethyl]amino}methyl)-2-furyl]benzamide] | 891
COC(=O)[C@@H](Cc1ccc(C#N)cc1)NC(=O)c1cc(-c2ccc(CN[C@H](C)c3ccc(C)cc3)o2)ccc1Cl [Example 15, methyl N-{2-chloro-5-[5-({[(1R)-1-(4-methylphenyl)ethyl]amino}methyl)-2-furyl]benzoyl}-4-cyano-D-phenylalaninate] | 812
Cc1ccc([C@@H](C)NCc2ccc(-c3ccc(Cl)c(C(=O)N[C@H](Cc4ccc(C#N)cc4)[C@@H](C)O)c3)o2)cc1 [Example 16, 2-chloro-N-[(2R,3R)-1-(4-cyanophenyl)-3-hydroxybutan-2-yl]-5-[5-({[(1R)-1-(4-methylphenyl)ethyl]amino}methyl)-2-furyl]benzamide] | 570
Cc1ccc([C@@H](C)NCc2ccc(-c3ccc(Cl)c(C(=O)N[C@H](Cc4ccc(C#N)cc4)[C@H](C)O)c3)o2)cc1 [Example 17, 2-chloro-N-[(2R,3S)-1-(4-cyanophenyl)-3-hydroxybutan-2-yl]-5-[5-({[(1R)-1-(4-methylphenyl)ethyl]amino}methyl)-2-furyl]benzamide] | 341
Cc1ccc([C@@H](C)NCc2ccc(-c3ccc(Cl)c(C(=O)N[C@@H](CO)Cc4ccc(I)cc4)c3)o2)cc1 [Example 18, 2-chloro-N-[(2R)-1-hydroxy-3-(4-iodophenyl)propan-2-yl]-5-[5-({[(1R)-1-(4-methylphenyl)ethyl]amino}methyl)-2-furyl]benzamide] | 1130
